Experiment [1] addresses T1, Angiotensin-converting enzyme (Oryctolagus cuniculus, UniProt P12822).
T1 sequence (P12822 whole entry): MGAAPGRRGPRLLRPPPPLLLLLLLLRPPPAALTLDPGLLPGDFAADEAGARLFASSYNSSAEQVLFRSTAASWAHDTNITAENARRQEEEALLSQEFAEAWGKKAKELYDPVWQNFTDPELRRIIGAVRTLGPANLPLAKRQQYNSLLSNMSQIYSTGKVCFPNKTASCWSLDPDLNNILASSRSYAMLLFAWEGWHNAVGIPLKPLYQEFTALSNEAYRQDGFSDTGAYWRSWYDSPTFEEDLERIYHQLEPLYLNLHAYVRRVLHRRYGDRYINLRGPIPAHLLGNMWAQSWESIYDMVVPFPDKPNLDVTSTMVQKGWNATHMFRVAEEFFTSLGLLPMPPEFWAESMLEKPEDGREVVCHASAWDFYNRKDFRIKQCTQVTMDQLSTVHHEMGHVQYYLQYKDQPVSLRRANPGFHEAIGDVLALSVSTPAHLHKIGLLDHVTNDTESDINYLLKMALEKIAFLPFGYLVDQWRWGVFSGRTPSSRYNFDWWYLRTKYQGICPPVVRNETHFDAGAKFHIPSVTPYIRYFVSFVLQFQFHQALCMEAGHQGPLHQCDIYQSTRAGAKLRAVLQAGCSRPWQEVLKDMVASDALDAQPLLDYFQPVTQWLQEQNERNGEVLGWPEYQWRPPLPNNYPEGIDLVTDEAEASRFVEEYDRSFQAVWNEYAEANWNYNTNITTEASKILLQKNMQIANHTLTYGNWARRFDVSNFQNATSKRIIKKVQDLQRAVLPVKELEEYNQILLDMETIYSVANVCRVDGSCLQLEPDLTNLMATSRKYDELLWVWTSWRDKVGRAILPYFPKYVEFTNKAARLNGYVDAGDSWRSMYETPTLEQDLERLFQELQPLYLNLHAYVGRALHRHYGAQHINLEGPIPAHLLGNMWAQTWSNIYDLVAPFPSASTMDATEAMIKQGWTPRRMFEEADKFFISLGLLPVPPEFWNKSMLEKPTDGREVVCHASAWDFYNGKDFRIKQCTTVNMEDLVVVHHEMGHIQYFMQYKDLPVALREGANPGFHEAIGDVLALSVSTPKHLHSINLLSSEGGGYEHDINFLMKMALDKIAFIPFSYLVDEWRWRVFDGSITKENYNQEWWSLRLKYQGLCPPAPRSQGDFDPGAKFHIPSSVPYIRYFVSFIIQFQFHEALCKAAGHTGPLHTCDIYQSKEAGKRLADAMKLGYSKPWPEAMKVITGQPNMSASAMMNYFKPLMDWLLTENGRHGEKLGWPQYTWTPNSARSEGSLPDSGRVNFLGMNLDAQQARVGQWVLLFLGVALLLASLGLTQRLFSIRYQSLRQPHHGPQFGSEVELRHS
Description: In vitro inhibition of angiotensin I converting enzyme (ACE).

Experiment [2] relates to Rattus norvegicus. The experiment in a line: In vivo percent inhibition of angiotensin I pressor response 15 min after 1 mg/kg, iv administration in spontaneously hypertensive rat (SHR). It is filed as functional. The conditions noted are these: for inhibition in vivo at 1 mg/kg: Rattus norvegicus, iv, 0.25 h.
In experiment [3] the test system is Rattus norvegicus. Description: In vivo percent inhibition of angiotensin I pressor response 15 min after 0.10 mg/kg, iv administration in spontaneously hypertensive rat (SHR). The conditions noted are these: 0.25 h. Format: functional.
Experiment [4] concerns Rattus norvegicus. Description: In vivo percent inhibition of angiotensin I pressor response 15 min after 10mg/kg, iv administration in spontaneously hypertensive rat (SHR). It is filed as functional. The conditions noted are these: 0.25 h.
The subject of experiment [5] is Rattus norvegicus. Description: Maximal change in blood pressure recorded during the 4-day test period in spontaneously hypertensive rat (SHR)at 30 mg/kg, po dose. It is filed as functional.
Experiment [6] concerns Rattus norvegicus. The experiment in a line: In vivo percent inhibition of angiotensin I pressor response 15 min after 10 mg/kg, iv administration in spontaneously hypertensive rat (SHR). It is filed as functional. Conditions: 0.25 h.
The subject of experiment [7] is Rattus norvegicus. The experiment in a line: Maximal change in blood pressure recorded during the 4-day test period in spontaneously hypertensive rat (SHR) at 30 mg/kg, po dose. Format: functional.
Experiment [8] relates to Rattus norvegicus. Description: Maximal change in blood pressure recorded during the 4-day test period in spontaneously hypertensive rat (SHR)at 50 mg/kg, p.o. dose. The conditions noted are these: route oral. Format: functional.
Experiment [9] relates to Rattus norvegicus. The experiment in a line: In vivo percent inhibition of angiotensin I pressor response 15 min after 2 mg/kg, iv administration in spontaneously hypertensive rat (SHR). It is filed as functional. Conditions: 0.25 h.
Experiment [10] deals with T1, Angiotensin-converting enzyme. Description: In vitro inhibition of angiotensin converting enzyme.
Experiment [11] has as its system Rattus norvegicus. The experiment in a line: Maximal change in blood pressure recorded during the 4-day test period in spontaneously hypertensive rat (SHR)at 10mg/kg, po dose. It is filed as functional.
The subject of experiment [12] is Rattus norvegicus. Description: In vivo percent inhibition of angiotensin I pressor response 15 min after 0.4 mg/kg, iv administration in spontaneously hypertensive rat (SHR). Format: functional. Conditions: 0.25 h.
For experiment [13], the system named is Rattus norvegicus. The experiment in a line: In vivo percent inhibition of angiotensin I pressor response 15 min after 0.3 mg/kg, iv administration in spontaneously hypertensive rat (SHR). The conditions noted are these: 0.25 h. It is filed as functional.

In general, IC50 refers to the concentration needed to halve the response being measured. What is called inhibition in vivo is how much of the control response was suppressed. Low readings indicate a response near the control, high ones a response far below the control. For the compound `CC(CC(C)C(=O)N1c2ccccc2CC1C(=O)O)C(=O)O` (stereo in doubt; 6m), the IC50 in experiment [1] is 0.19 µM. This compound also gave an inhibition in vivo at 1 mg/kg in the experiment on Rattus norvegicus [2] of 76%.

On to `CC(C)C(CCC(=O)O)C(=O)N1c2ccccc2CC1C(=O)O` (stereo not given), for which the IC50 in experiment [1] is 0.05 µM. The compound also returned an inhibition in vivo at 1 mg/kg in the experiment with Rattus norvegicus [2] of 77%.

For `C[C@H](C[C@@H](CCc1ccccc1)C(=O)O)C(=O)N1c2ccccc2CC1C(=O)O` (stereo not given in full), half-maximal inhibition in experiment [1] (IC50) required 0.0048 µM. In the experiment with Rattus norvegicus [3], the inhibition in vivo at 0.1 mg/kg was 60%.

`CCOC(=O)C1Cc2ccccc2N1C(=O)CCC(C)C(=O)O` (stereo not given) registered a half-maximal inhibitory concentration (IC50) in experiment [1] of 170 µM. This compound had an inhibition in vivo at 10 mg/kg in the experiment on Rattus norvegicus [4] of 11%.

With `COc1ccc2c(c1)CC(C(=O)O)N2C(=O)[C@H](C)C[C@@H](C)C(=O)O` (stereo not given in full), the IC50 in experiment [1] came out at 0.11 µM. Moreover, testing at 1 mg/kg with Rattus norvegicus [2] gave an inhibition in vivo of 56%.

`C[C@H](CCC(=O)O)C(=O)N1c2ccccc2CC1C(=O)O` (stereo not given in full) yielded an IC50 in experiment [1] of 0.044 µM. In the experiment on Rattus norvegicus [2], this compound registered an inhibition in vivo at 1 mg/kg of 94%. Further, the Max delta BP in the experiment on Rattus norvegicus [5] is -35 mmHg.

The compound `CC(C)(CC(=O)O)CC(=O)N1c2ccccc2CC1C(=O)O` (stereo not given) had an IC50 in experiment [1] of 290 µM.

For `O=C(O)CCCC(=O)N1c2ccccc2CC1C(=O)O` (stereo not given), the IC50 in experiment [1] worked out at 0.26 µM. Besides, the inhibition in vivo at 10 mg/kg in the experiment on Rattus norvegicus [6] is 78%. In addition, in the experiment with Rattus norvegicus [7], the Max delta BP is -37 mmHg.

In turn, `CCOC(=O)[C@H](C)C[C@@H](C)C(=O)N1c2ccccc2CC1C(=O)O` (stereo not given in full) showed a concentration for half-maximal inhibition (IC50) in experiment [1] of 5.5 µM. In the experiment with Rattus norvegicus [3], testing at 0.1 mg/kg gave an inhibition in vivo of 52%. The compound further displayed a Max delta BP with Rattus norvegicus [8] of -75 mmHg.

For `CCOC(=O)[C@@H](CCC(=O)N1c2ccccc2CC1C(=O)O)CCc1ccccc1` (stereo not given in full), the half-inhibitory concentration (IC50) in experiment [1] was determined as 4.3 µM. The same compound returned an inhibition in vivo at 1 mg/kg with Rattus norvegicus [2] of 17%.

In turn, `O=C(O)C(CCC(=O)N1c2ccccc2CC1C(=O)O)CCc1ccccc1` (stereo not given) had an IC50 in [1] of 0.039 µM. In addition, 10 mg/kg produced 75% inhibition in vivo in the experiment with Rattus norvegicus [4]. Also, the Max delta BP in the experiment on Rattus norvegicus [8] is -46 mmHg.

`CC(CC(=O)O)C(=O)N1c2ccccc2C[C@H]1C(=O)O` (stereo not given in full) came in with an IC50 in [1] of 0.3 µM. In addition, 1 mg/kg produced 27% inhibition in vivo in the experiment on Rattus norvegicus [2].

In turn, `O=C(O)C1Cc2ccccc2N1C(=O)CC[C@@H](CCc1ccccc1)C(=O)O` (stereo not given in full) came in with an IC50 in experiment [1] of 0.033 µM.

For orientation: Inhibition means the relative decrease from the control value, in per cent. Low readings indicate a weak effect, high ones a strong effect. In experiment [1], `CC(CC(C)C(=O)N1c2ccccc2CC1C(=O)O)C(=O)O` (stereo in doubt; 6n) showed an IC50 of 0.054 µM. The compound also gave an Inhibition in the experiment with Rattus norvegicus [2] (1 mg/kg) of 84%.

Regarding `COC(=O)CCC(C)C(=O)N1c2ccccc2CC1C(=O)O` (stereo not given), 6.9 µM corresponded to half-maximal inhibition in experiment [1] (IC50). The compound further registered an inhibition in vivo at 0.1 mg/kg in the experiment on Rattus norvegicus [3] of 45%. In addition, the Max delta BP in the experiment with Rattus norvegicus [8] was -61 mmHg.

Compound `CC(CCC(=O)O)C(=O)N1c2ccccc2CC1C(=O)O` (stereo not given) displayed an IC50 in [1] of 0.064 µM. In the experiment on Rattus norvegicus [2], at 1 mg/kg the inhibition in vivo was 84%. For the same compound, the Max delta BP in the experiment on Rattus norvegicus [8] was -61 mmHg.

Turning to `Cc1ccc2c(c1)CC(C(=O)O)N2C(=O)[C@H](C)C[C@@H](C)C(=O)O` (stereo not given in full), the inhibition in vivo at 2 mg/kg in the experiment on Rattus norvegicus [9] was found to be 40%. The compound also had an IC50 in experiment [10] of 0.49 µM.

In turn, `C[C@H](CS)C(=O)N1CCC[C@H]1C(=O)O` [CAPTOPRIL] gave an inhibition in vivo at 1 mg/kg in the experiment with Rattus norvegicus [2] of 90%. The Max delta BP is -55 mmHg with Rattus norvegicus [5] and -45 mmHg in the experiment on Rattus norvegicus [11].

Regarding `CCOC(=O)CC[C@@H](C)C(=O)N1c2ccccc2CC1C(=O)O` (stereo not given in full), it took 11 µM to reach half-maximal inhibition in experiment [1] (IC50). This compound yielded an inhibition in vivo at 0.1 mg/kg with Rattus norvegicus [3] of 27%. The same compound showed a Max delta BP with Rattus norvegicus [8] of -66 mmHg.

As to `CCOC(=O)C1Cc2ccccc2N1C(=O)C(C)CC(C)C(=O)O` (stereo not given), in experiment [1], the IC50 was 8.8 µM. In addition, in the experiment on Rattus norvegicus [4], testing at 10 mg/kg gave an inhibition in vivo of 84%. Also, in the experiment on Rattus norvegicus [8], the Max delta BP was -33 mmHg.

`CC(CCC(N)=O)C(=O)N1c2ccccc2CC1C(=O)O` (stereo not given) showed an IC50 in experiment [1] of 16 µM. In addition, the inhibition in vivo at 10 mg/kg in the experiment on Rattus norvegicus [4] is 71%.

Compound `C[C@H](C[C@@H](C)C(=O)N1c2ccccc2CC1C(=O)O)C(=O)O` (stereo not given in full) had an IC50 in experiment [1] of 0.028 µM. Moreover, 0.1 mg/kg produced 45% inhibition in vivo in the experiment on Rattus norvegicus [3]. Further, the Max delta BP with Rattus norvegicus [8] was -39 mmHg.

As for `C[C@H](C[C@@H](C)C(=O)N1c2ccc(Cl)cc2CC1C(=O)O)C(=O)O` (stereo not given in full), inhibition in experiment [1] was half-maximal at 0.44 µM (IC50). Also, the inhibition in vivo at 2 mg/kg in the experiment on Rattus norvegicus [9] turned out to be 32%.

`O=C(O)CCCC(=O)N1CCC[C@H]1C(=O)O` showed an IC50 in experiment [1] of 70 µM. This counts as double-digit micromolar.

`CCOC(=O)[C@H](CCc1ccccc1)C[C@@H](C)C(=O)N1c2ccccc2CC1C(=O)O` (stereo not given in full) had an inhibition in vivo at 0.4 mg/kg with Rattus norvegicus [12] of 89%. In [1], this compound yielded an IC50 of 11 µM. In the experiment on Rattus norvegicus [5], this compound displayed a Max delta BP of -70 mmHg.

In experiment [1], `CC(CC(=O)O)CC(=O)N1c2ccccc2CC1C(=O)O` (stereo not given) showed an IC50 of 37 µM. The same compound gave an inhibition in vivo at 10 mg/kg in the experiment with Rattus norvegicus [4] of 20%.

`CCOC(=O)C1Cc2ccccc2N1C(=O)[C@H](C)C[C@@H](C)C(=O)O` (stereo not given in full): inhibition in [1] was half-maximal at 28 µM (IC50). In the experiment with Rattus norvegicus [13], this compound returned an inhibition in vivo at 0.3 mg/kg of 16%.

`C[C@H](C[C@@H](C)C(=O)N1CCC[C@H]1C(=O)O)C(=O)O`: half-maximal inhibition in [1] (IC50) was put at 4.8 µM.

The compound `CC(CCC(=O)N1c2ccccc2CC1C(=O)O)C(=O)O` (stereo not given) displayed an IC50 in experiment [1] of 0.92 µM. This compound also came in with an inhibition in vivo at 10 mg/kg with Rattus norvegicus [4] of 41%.

The record behind these values is ChEMBL document CHEMBL1122283, “Angiotensin converting enzyme inhibitors: 1-glutarylindoline-2-carboxylic acids derivatives” (J Med Chem, 1983).
